Measurements as given in patent US20240181136A1, “LOW MOLECULAR WEIGHT HYDROGELS COMPRISING THIOGLYCOLIPIDS” (ARIZONA BOARD OF REGENTS ON BEHALF OF THE UNIVERSITY OF …, priority 2021, published 2024).

Key:
Type in all cases: physicochemical
[1] = Visual assessment of thioglycolipid aggregation and hydrogel formation; set-up: key to Visual assessment of aggregation and gelation: G = gel; F = fibrous aggregation; C = clear solution; O = cloudy solution; details: for Hydrogelation on quenching: quenched at temperatures <20° C.
Experimental: Preparation of Thioglycolipid Solutions and Hydrogel Fabrication. Aqueous solutions of thioglycolipids were prepared by weighing 2-3 mg of thioglycolipids and adding an appropriate volume of water to make solution samples at desired concentrations in vials. The vials were capped, sealed with Parafilm, and heated to 75° C. (or 85° C. for LacSC12) until the thioglycolipids were completely dissolved, which typically required about 1 min. The samples were then allowed to cool to ambient temperature. Above some minimal concentration, the solution forms hydrogels upon cooling (FIG. 1). While hydrogelation happens in under 1 min, the gels were allowed to equilibrate at room temperature for 15 min before any analysis. To make metastable thiocellobiosides gels, the samples were quenched at −4° C. after dissolution at 75° C. Although the metastable hydrogels also formed in under 1 min, the gels were allowed to equilibrate at −4° C. for 15 min before analysis.
Visual Assessment of Thioglycolipid Hydrogel Formation. A wide range of thioglycolipid solutions were evaluated to establish concentration conditions (wt %) under which hydrogelation occurs and to assess the formation of other phases. For LacSC8 and LacSC12 solutions at concentrations <0.5 wt %, the solutions were either clear (C) or contain large aggregates (O) (i.e., cloudy). These solutions formed partial hydrogels surrounded by clear solution between 0.5 but <1 wt %, and were completely gelled at concentrations of 1 wt % and greater. Solutions of LacSC10 at <2 wt % formed partial hydrogels surrounded by clear liquid but were completely gelled at or above 2 wt %. […] CelSC10 and CelSC12 solutions formed settled fibrous aggregates in clear solution after equilibrating at ambient temperature overnight. […] If retained at 5° C. , the CelSC10 and CelSC12 gels were stable for at least 6 months. […] Powder x-ray diffraction confirmed that these fibrous aggregates were crystalline. Overall, the thioglycolipid concentration at which hydrogelation can be observed can be as low as 0.05 wt %, depending on thioglycolipid system, compared to the typical concentration for hydrogelation of at least 1 wt % commonly reported in the literature, although 0.25-2 wt % is the concentration range wherein these thioglycolipid solutions became fully hydrogelled. The existence of metastable hydrogels and the ability to tune the transformation of hydrogels into crystals may allow their potential use as smart materials for different applications.

[2] = Differential scanning calorimetry of hydrogels (gel-sol phase transition); details: for Phase transition temperature: DSC heating 5° C. per min; for Enthalpy (J/g hydrogel) / Enthalpy (kJ/mol thioglycolipids): gel-sol transition
Experimental: Differential Scanning calorimetry. A Mettler Toledo DSC 823e differential scanning calorimeter, equipped with cooling apparatus, was used for measurement of the phase transition temperature and enthalpy of the gels. Hydrogel samples were first prepared using the fabrication method described above. Then, they were heated to 75° C. (or 85° C. for LacSC12) until they were in the solution state and then pipetted into aluminum, 40 μL DSC pans and capped with lids. The amount of hydrogel in each aluminum pan was controlled to about 6-8 mg. The pans were maintained at 85° C. for 1 min to ensure the samples were in the solution state. Then, they were cooled to 5° C. and maintained at this temperature for 20 min to ensure the formation of hydrogels. […], the samples were heated from 5° C. to 85° C. at a heating rate at 5° C. per min.
Thermal Properties by DSC. Differential scanning calorimetry (DSC) was used to determine the phase transition temperature as well as to explore the possible existence of other lyotropic phases. DSC involves monitoring the enthalpy change during a phase transition, which can be used as a measure of hydrogel stability. The results (Table 2) indicated an endothermic transition between 30° C. and 80° C. for all thioglycolipid hydrogels studied, and these transitions matched those observed visually in bulk solutions. Overall, hydrogels with longer carbon chains had higher thermostability (i.e., higher phase transition temperature). In addition, the LacSCx (x=10,12) hydrogels had higher thermostability than the CelSCx (x=10,12) hydrogels, despite similar phase transition enthalpies. […] However, the LacSC12 and CelSC12 hydrogels required twice the enthalpy compared to the other three.

[3] = Small amplitude oscillatory shear rheology of hydrogels (strain sweep, frequency sweep, thixotropy); details: LacSC10 2 wt %, LacSC12 1 wt %
Experimental: Rheometry. The viscoelastic mechanical properties of the hydrogels were characterized using small amplitude oscillatory shear rheology on a Discovery Hybrid Rheometer 2 (TA Instruments, USA) with a sandblasted 20 mm cone-and-plate geometry at a 1° angle and a sandblasted stage. Inertia, friction, and rotational mapping calibrations were performed prior to each experiment. A Peltier temperature-controlled stage was maintained at 4° C., 10° C., 25° C., or 37° C. for rheology testing. Hydrogels were heated in a water bath above their transition temperature for 5 min, then transferred to the stage before the geometry was lowered quickly (1-3 sec) to the testing gap height of 50 μm. Excess gel was trimmed from the edges of the assembly. To control evaporation, the assembly was encased in a solvent trap with a water seal, and a mineral oil barrier was placed around the edges of the trap. Hydrogels were allowed to form and relax for 1 hour prior to experimentation. Strain sweeps were performed from 0.01% to 1000% shear strain at a constant 10 rad/s angular frequency. G′ (storage modulus) and G″ (loss modulus) were determined by averaging data within the linear viscoelastic region of the strain sweep. Frequency sweeps were performed from 0.01 rad/s to 100 rad/s at a constant 0.01% shear strain. Thixotropy experiments were conducted by cycling the shear strain between 0.01% and 100%. […]

[4] = Stability of hydrogel disks in aqueous media of various pH
Description: Stability of some of the representative hydrogels of the invention in various pH aqueous media was investigated.

[5] = thioglycolipid concentration 0.05 wt %, room temperature
[6] = thioglycolipid concentration 0.1 wt %, room temperature
[7] = thioglycolipid concentration 0.25 wt %, room temperature
[8] = thioglycolipid concentration 0.5 wt %, room temperature
[9] = thioglycolipid concentration 0.75 wt %, room temperature
[10] = thioglycolipid concentration 1 wt %, room temperature
[11] = thioglycolipid concentration 2 wt %, room temperature
[12] = thioglycolipid concentration 5 wt %, room temperature
[13] = thioglycolipid concentration 10 wt %, room temperature

| Hydrogelation on quenching [1] | Visual assessment of aggregation and gelation [1, 5] | Visual assessment of aggregation and gelation [1, 6] | Visual assessment of aggregation and gelation [1, 7] | Visual assessment of aggregation and gelation [1, 8] | Visual assessment of aggregation and gelation [1, 9] | Visual assessment of aggregation and gelation [1, 10] | Visual assessment of aggregation and gelation [1, 11] | Visual assessment of aggregation and gelation [1, 12] | Visual assessment of aggregation and gelation [1, 13] | Phase transition temperature ([2]; 1 wt % hydrogel) | Enthalpy (J/g hydrogel) ([2]; 1 wt % hydrogel) | Enthalpy (kJ/mol thioglycolipids) ([2]; 1 wt % hydrogel) | Gel properties at 37° C. [3] | Structure (SMILES) | further results |
| --- | --- | --- | --- | --- | --- | --- | --- | --- | --- | --- | --- | --- | --- | --- | --- |
| – | C | C | C | G + C | G + C | G | G | G | G | 38-46 °C | 0.20 ± 0.03 J/g hydrogel | 9.2 ± 1.4 kJ/mol thioglycolipids | – | CCCCCCCCS[C@@H]1O[C@H](CO)[C@@H](O[C@@H]2O[C@H](CO)[C@H](O)[C@H](O)[C@H]2O)[C@H](O)[C@H]1O [LacSC8] | – |
| – | C | C | C | C | C | C | C | C | C | – | – | – | – | CCCCCCCCS[C@@H]1O[C@H](CO)[C@@H](O[C@@H]2O[C@H](CO)[C@@H](O)[C@H](O)[C@H]2O)[C@H](O)[C@H]1O [CelSC8] | Visual state of solutions over all concentrations studied ([1]; room temperature, 0.05-10 wt %): remained as clear solutions at all concentrations studied |
| – | G + C | G + C | G + C | G + C | G + C | G + C | G | G | G | – | – | – | retained their gel properties | CCCCCCCCCCS[C@@H]1O[C@H](CO)[C@@H](O[C@@H]2O[C@H](CO)[C@H](O)[C@H](O)[C@H]2O)[C@H](O)[C@H]1O [LacSC10] | Concentration at which solutions were completely gelled ([1]; room temperature): ≥ 2 wt %; Phase transition temperature ([2]; 2 wt % hydrogel): 57-64 °C; Enthalpy (J/g hydrogel) ([2]; 2 wt % hydrogel): 0.35 ± 0.02 J/g hydrogel; Enthalpy (kJ/mol thioglycolipids) ([2]; 2 wt % hydrogel): 8.8 ± 0.5 kJ/mol thioglycolipids; Hydrogel disk size or volume in aqueous media ([4]; pH 2, 7.4 and 10, days 1-21): No observable decrease in disk size or volume; Time hydrogel disks are stable in aqueous media ([4]; pH 2, 7.4 and 10, maximum time investigated): stable in these aqueous media for over two months |

Continued, compound first:

| Structure (SMILES) | Hydrogelation on quenching [1] | Visual assessment of aggregation and gelation [1, 5] | Visual assessment of aggregation and gelation [1, 6] | Visual assessment of aggregation and gelation [1, 7] | Visual assessment of aggregation and gelation [1, 8] | Visual assessment of aggregation and gelation [1, 9] | Visual assessment of aggregation and gelation [1, 10] | Visual assessment of aggregation and gelation [1, 11] | Visual assessment of aggregation and gelation [1, 12] | Visual assessment of aggregation and gelation [1, 13] | Phase transition temperature ([2]; 1 wt % hydrogel) | Enthalpy (J/g hydrogel) ([2]; 1 wt % hydrogel) | Enthalpy (kJ/mol thioglycolipids) ([2]; 1 wt % hydrogel) | Gel properties at 37° C. [3] | further results |
| --- | --- | --- | --- | --- | --- | --- | --- | --- | --- | --- | --- | --- | --- | --- | --- |
| CCCCCCCCCCCCS[C@@H]1O[C@H](CO)[C@@H](O[C@@H]2O[C@H](CO)[C@@H](O)[C@H](O)[C@H]2O)[C@H](O)[C@H]1O [CelSC12] | completely hydrogelled | F | F | G or F | G or F | G or F | G or F | G or F | G or F | G or F | 42-54 °C | 0.42 ± 0.06 J/g hydrogel | 22.3 ± 3.3 kJ/mol thioglycolipids | – | – |
| CCCCCCCCCCCCS[C@@H]1O[C@H](CO)[C@@H](O[C@@H]2O[C@H](CO)[C@H](O)[C@H](O)[C@H]2O)[C@H](O)[C@H]1O [LacSC12] | – | O | O | O | G + C | G + C | G | G | G | G | 63-79 °C | 0.39 ± 0.10 J/g hydrogel | 20.7 ± 5.3 kJ/mol thioglycolipids | retained their gel properties | – |
| CCCCCCCCCCS[C@@H]1O[C@H](CO)[C@@H](O[C@@H]2O[C@H](CO)[C@@H](O)[C@H](O)[C@H]2O)[C@H](O)[C@H]1O [CelSC10] | completely hydrogelled | F | F | G or F | G or F | G or F | G or F | G or F | G or F | G or F | 31-37 °C | 0.18 ± 0.01 J/g hydrogel | 9.0 ± 0.6 kJ/mol thioglycolipids | – | – |
